Experimental data as given in the kinase profiling compilation of Christmann-Franck et al. (2016).

Experiments:
RAF1 (human) = RAF1 (human) (UniProt P04049); test: ELISA
BMPR1A (human) = BMPR1A (human) (UniProt P36894); test: ELISA
PLK4 (human) = PLK4 (human) (UniProt O00444); test: ELISA
MAP3K2 (human) = MAP3K2 (human) (UniProt Q9Y2U5); test: ELISA
MAP3K5 (human) = MAP3K5 (human) (UniProt Q99683); test: ELISA
MAP2K7 (human) = MAP2K7 (human) (UniProt O14733); test: ELISA
MAP3K10 (human) = MAP3K10 (human) (UniProt Q02779); test: ELISA
MAP2K2 (human) = MAP2K2 (human) (UniProt P36507); test: ELISA
MAP3K1 (human) = MAP3K1 (human) (UniProt Q13233); test: ELISA
MAP3K1 (human), sequence (Q13233 whole entry, looked up): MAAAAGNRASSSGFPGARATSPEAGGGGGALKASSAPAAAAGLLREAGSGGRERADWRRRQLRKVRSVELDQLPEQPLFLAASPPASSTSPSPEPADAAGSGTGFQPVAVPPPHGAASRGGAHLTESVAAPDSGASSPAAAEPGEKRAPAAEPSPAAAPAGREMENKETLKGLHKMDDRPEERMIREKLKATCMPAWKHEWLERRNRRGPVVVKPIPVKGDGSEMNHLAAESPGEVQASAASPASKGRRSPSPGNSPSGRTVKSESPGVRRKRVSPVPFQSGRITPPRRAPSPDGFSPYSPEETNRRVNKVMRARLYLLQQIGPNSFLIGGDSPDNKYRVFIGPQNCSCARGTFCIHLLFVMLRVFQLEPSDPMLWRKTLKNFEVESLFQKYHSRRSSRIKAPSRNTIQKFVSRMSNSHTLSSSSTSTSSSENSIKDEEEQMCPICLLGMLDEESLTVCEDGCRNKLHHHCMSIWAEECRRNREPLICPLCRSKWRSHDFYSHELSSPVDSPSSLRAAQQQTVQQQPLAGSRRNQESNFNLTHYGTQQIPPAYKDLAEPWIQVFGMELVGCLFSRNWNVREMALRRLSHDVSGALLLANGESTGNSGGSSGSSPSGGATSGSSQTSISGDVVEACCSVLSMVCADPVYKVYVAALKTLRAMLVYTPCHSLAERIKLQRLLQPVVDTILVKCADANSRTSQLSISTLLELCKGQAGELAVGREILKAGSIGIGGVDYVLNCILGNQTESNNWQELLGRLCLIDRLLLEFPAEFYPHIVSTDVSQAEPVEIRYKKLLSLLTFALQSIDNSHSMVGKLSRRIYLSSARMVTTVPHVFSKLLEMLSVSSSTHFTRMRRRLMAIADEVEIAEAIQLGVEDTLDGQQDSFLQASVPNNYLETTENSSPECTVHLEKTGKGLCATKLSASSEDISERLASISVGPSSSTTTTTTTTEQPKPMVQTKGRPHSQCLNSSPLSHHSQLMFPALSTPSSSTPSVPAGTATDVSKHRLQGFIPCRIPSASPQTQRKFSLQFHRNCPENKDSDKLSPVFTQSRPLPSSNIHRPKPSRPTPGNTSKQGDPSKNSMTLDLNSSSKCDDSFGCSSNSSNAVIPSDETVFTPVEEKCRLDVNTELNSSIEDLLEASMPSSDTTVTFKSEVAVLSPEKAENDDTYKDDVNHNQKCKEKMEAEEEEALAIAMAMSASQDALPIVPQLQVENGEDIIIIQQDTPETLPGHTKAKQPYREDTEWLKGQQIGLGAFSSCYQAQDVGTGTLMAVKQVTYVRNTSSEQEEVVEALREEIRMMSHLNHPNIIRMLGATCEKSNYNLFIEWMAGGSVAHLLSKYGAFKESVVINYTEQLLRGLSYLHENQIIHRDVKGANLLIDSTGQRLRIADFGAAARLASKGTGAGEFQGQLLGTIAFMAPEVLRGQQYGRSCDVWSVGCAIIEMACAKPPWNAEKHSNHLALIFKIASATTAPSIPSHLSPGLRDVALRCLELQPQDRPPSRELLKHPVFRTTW

MAP3K8 (human) = MAP3K8 (human) (UniProt P41279); test: ELISA
MAP3K8 (human), sequence (P41279 whole entry, looked up): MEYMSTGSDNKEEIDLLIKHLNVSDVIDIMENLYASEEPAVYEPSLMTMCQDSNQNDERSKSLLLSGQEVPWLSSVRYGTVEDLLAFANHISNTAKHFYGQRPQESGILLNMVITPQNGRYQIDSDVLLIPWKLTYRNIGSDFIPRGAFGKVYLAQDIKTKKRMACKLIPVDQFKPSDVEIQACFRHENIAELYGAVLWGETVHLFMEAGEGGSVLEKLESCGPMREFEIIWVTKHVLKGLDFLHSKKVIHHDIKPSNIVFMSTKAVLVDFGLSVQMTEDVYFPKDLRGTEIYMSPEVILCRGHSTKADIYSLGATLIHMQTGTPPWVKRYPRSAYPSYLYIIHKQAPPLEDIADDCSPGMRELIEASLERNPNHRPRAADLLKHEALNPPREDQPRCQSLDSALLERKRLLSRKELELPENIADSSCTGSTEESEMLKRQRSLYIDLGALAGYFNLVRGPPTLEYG

WEE1 (human) = WEE1 (human) (UniProt P30291); test: ELISA
MAP3K9 (human) = MAP3K9 (human) (UniProt P80192); test: ELISA
MAP3K9 (human), sequence (P80192 whole entry, looked up): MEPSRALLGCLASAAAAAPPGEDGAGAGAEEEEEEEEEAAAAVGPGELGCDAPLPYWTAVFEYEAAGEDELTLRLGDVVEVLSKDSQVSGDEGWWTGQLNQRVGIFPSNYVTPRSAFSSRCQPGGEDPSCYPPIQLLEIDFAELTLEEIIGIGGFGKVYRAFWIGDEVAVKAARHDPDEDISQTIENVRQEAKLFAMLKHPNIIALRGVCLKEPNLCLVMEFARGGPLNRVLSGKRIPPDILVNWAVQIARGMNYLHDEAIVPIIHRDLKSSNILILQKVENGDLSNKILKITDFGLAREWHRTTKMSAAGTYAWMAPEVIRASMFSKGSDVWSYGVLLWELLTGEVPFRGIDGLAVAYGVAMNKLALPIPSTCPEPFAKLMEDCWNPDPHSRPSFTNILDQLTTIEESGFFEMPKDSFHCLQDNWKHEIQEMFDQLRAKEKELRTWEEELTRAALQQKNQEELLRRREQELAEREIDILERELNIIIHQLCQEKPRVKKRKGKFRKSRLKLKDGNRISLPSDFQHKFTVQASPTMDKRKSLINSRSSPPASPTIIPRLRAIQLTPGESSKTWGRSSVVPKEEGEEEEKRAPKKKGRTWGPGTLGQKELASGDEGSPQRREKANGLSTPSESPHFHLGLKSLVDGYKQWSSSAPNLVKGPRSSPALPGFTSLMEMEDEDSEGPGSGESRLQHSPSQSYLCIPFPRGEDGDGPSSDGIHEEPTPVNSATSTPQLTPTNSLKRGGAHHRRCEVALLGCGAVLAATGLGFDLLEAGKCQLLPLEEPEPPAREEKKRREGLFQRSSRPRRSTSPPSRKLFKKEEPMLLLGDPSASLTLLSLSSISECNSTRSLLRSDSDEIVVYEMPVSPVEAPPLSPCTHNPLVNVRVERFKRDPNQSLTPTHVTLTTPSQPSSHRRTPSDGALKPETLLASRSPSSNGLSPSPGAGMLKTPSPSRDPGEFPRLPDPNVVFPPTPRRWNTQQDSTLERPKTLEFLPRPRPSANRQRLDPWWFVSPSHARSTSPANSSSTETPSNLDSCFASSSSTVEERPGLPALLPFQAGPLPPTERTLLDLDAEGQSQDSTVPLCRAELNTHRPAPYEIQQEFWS

LIMK1 (human) = LIMK1 (human) (UniProt P53667); test: ELISA
MAP2K1 (human) = MAP2K1 (human) (UniProt Q02750); test: ELISA
MAP3K12 (human) = MAP3K12 (human) (UniProt Q12852); test: ELISA
MOS (human) = MOS (human) (UniProt P00540); test: ELISA
MOS (human), sequence (P00540 whole entry, looked up): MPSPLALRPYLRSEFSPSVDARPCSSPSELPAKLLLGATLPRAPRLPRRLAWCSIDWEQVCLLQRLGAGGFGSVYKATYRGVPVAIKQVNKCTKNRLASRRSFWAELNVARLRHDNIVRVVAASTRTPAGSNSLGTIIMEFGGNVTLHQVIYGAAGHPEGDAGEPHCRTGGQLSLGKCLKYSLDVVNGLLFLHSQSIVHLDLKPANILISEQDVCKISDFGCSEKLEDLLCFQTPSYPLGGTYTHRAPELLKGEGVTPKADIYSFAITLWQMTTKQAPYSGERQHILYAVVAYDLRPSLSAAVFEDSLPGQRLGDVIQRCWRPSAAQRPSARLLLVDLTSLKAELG

BRAF (human) = BRAF (human) (UniProt P15056); test: ELISA
MAP3K3 (human) = MAP3K3 (human) (UniProt Q99759); test: ELISA
STK11 (human) = STK11 (human) (UniProt Q15831); test: ELISA
MAP2K6 (human) = MAP2K6 (human) (UniProt P52564); test: ELISA
MAP2K5 (human) = MAP2K5 (human) (UniProt Q13163); test: ELISA
MAP3K11 (human) = MAP3K11 (human) (UniProt Q16584); test: ELISA
TTK (human) = TTK (human) (UniProt P33981); test: ELISA
MAP2K3 (human) = MAP2K3 (human) (UniProt P46734); test: ELISA
MAP2K3 (human), sequence (P46734 whole entry, looked up): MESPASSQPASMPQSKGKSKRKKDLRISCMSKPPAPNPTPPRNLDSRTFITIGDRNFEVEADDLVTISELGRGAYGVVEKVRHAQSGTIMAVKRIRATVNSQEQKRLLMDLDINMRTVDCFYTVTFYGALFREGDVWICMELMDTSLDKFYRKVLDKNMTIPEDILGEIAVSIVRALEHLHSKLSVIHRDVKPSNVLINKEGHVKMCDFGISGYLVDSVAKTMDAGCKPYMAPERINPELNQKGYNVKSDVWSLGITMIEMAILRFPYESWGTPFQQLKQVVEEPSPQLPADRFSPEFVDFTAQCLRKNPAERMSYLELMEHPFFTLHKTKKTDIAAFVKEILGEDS

MAP3K4 (human) = MAP3K4 (human) (UniProt Q9Y6R4); test: ELISA
TNK2 (human) = TNK2 (human) (UniProt Q07912); test: Caliper, Mobility shift assay off-chip
CSNK1G3 (human) = CSNK1G3 (human) (UniProt Q9Y6M4); test: Caliper, Mobility shift assay off-chip
PRKD1 (human) = PRKD1 (human) (UniProt Q15139); test: Caliper, Mobility shift assay off-chip
FER (human) = FER (human) (UniProt P16591); test: Caliper, Mobility shift assay off-chip
MARK3 (human) = MARK3 (human) (UniProt P27448); test: Caliper, Mobility shift assay off-chip
ALK (human) = ALK (human) (UniProt Q9UM73); test: Caliper, Mobility shift assay off-chip
EPHA6 (human) = EPHA6 (human) (UniProt Q9UF33); test: Caliper, Mobility shift assay off-chip
EPHA6 (human), sequence (Q9UF33 whole entry, looked up): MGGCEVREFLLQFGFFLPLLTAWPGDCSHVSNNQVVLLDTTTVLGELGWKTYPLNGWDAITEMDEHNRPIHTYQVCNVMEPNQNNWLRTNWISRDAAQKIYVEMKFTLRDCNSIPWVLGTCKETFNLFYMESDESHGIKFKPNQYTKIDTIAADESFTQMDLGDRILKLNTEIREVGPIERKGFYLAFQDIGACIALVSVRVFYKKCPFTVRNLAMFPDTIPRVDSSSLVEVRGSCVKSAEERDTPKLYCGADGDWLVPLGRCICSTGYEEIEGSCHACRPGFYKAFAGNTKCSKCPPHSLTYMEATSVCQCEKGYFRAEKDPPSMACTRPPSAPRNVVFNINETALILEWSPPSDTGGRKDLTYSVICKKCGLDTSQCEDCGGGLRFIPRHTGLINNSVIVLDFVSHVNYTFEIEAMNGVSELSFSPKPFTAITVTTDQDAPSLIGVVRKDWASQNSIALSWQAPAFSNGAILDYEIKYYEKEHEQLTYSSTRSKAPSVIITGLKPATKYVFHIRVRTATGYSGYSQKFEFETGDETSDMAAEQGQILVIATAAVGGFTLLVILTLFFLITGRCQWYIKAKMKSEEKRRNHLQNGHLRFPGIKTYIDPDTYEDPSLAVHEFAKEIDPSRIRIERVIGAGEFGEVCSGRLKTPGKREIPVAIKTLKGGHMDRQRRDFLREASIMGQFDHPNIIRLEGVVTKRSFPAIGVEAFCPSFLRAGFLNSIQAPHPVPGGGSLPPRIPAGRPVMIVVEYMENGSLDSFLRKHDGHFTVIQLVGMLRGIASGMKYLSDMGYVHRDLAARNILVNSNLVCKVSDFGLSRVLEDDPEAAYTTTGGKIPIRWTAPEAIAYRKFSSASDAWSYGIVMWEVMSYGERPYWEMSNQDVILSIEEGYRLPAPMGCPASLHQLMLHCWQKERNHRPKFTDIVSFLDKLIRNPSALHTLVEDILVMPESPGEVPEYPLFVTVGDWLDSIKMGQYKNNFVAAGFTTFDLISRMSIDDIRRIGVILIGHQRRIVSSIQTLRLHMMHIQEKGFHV

PGK1 (human) = PGK1 (human) (UniProt P00558); test: Caliper, Mobility shift assay off-chip
RPS6KA3 KD1 KD2 (human) = RPS6KA3 KD1 KD2 (human) (UniProt P51812); test: Caliper, Mobility shift assay off-chip
CDK5 (human) = CDK5 (human) (UniProt Q00535); test: Caliper, Mobility shift assay off-chip

## CNC(=O)c1ccccc1Sc1ccc2c(/C=C/c3ccccn3)n[nH]c2c1
RAF1 (human); compound 0.001 µM
  inhibition: 0.9%
RAF1 (human); compound 0.02 µM
  inhibition: -3%
BMPR1A (human); compound 0.001 µM
  inhibition: -0.4%
BMPR1A (human); compound 0.02 µM
  inhibition: 1.1%
PLK4 (human); compound 0.001 µM
  inhibition: 23.3%
PLK4 (human); compound 0.02 µM
  inhibition: 48.9%
MAP3K2 (human); compound 0.001 µM
  inhibition: -0.4%
MAP3K2 (human); compound 0.02 µM
  inhibition: 1.9%
MAP3K5 (human); compound 0.001 µM
  inhibition: -2%
MAP3K5 (human); compound 0.02 µM
  inhibition: -2.8%
MAP2K7 (human); compound 0.001 µM
  inhibition: -1.2%
MAP2K7 (human); compound 0.02 µM
  inhibition: -3.4%
MAP3K10 (human); compound 0.001 µM
  inhibition: 4.4%
MAP3K10 (human); compound 0.02 µM
  inhibition: 2.7%
MAP2K2 (human); compound 0.001 µM
  inhibition: -7.9%
MAP2K2 (human); compound 0.02 µM
  inhibition: 0.1%
MAP3K1 (human); compound 0.001 µM
  inhibition: -3.7%
MAP3K1 (human); compound 0.02 µM
  inhibition: -3.5%
MAP3K8 (human); compound 0.001 µM
  inhibition: -5.7%
MAP3K8 (human); compound 0.02 µM
  inhibition: -0.7%
WEE1 (human); compound 0.001 µM
  inhibition: -2.1%
WEE1 (human); compound 0.02 µM
  inhibition: 1.5%
MAP3K9 (human); compound 0.001 µM
  inhibition: 1.1%
MAP3K9 (human); compound 0.02 µM
  inhibition: 0.1%
LIMK1 (human); compound 0.001 µM
  inhibition: 1.5%
LIMK1 (human); compound 0.02 µM
  inhibition: -2.6%
MAP2K1 (human); compound 0.001 µM
  inhibition: 4.3%
MAP2K1 (human); compound 0.02 µM
  inhibition: -1.3%
MAP3K12 (human); compound 0.001 µM
  inhibition: 6.6%
MAP3K12 (human); compound 0.02 µM
  inhibition: 4.3%
MOS (human); compound 0.001 µM
  inhibition: -7.5%
MOS (human); compound 0.02 µM
  inhibition: -15.4%
BRAF (human); compound 0.001 µM
  inhibition: -1.8%
BRAF (human); compound 0.02 µM
  inhibition: -4.5%
MAP3K3 (human); compound 0.001 µM
  inhibition: 6.6%
MAP3K3 (human); compound 0.02 µM
  inhibition: 0.5%
STK11 (human); compound 0.001 µM
  inhibition: 1.9%
STK11 (human); compound 0.02 µM
  inhibition: 0.2%
MAP2K6 (human); compound 0.001 µM
  inhibition: 3.2%
MAP2K6 (human); compound 0.02 µM
  inhibition: 2.3%
MAP2K5 (human); compound 0.001 µM
  inhibition: -15.6%
MAP2K5 (human); compound 0.02 µM
  inhibition: -11.8%
MAP3K11 (human); compound 0.001 µM
  inhibition: -5.9%
MAP3K11 (human); compound 0.02 µM
  inhibition: -7.1%
TTK (human); compound 0.001 µM
  inhibition: -2.7%
TTK (human); compound 0.02 µM
  inhibition: -3.2%
MAP2K3 (human); compound 0.001 µM
  inhibition: -2.7%
MAP2K3 (human); compound 0.02 µM
  inhibition: -2.2%
MAP3K4 (human); compound 0.001 µM
  inhibition: -7.9%
MAP3K4 (human); compound 0.02 µM
  inhibition: -1.7%
TNK2 (human); compound 0.001 µM
  inhibition: -7.8%
TNK2 (human); compound 0.02 µM
  inhibition: -8.8%
CSNK1G3 (human); compound 0.001 µM
  inhibition: -3.7%
CSNK1G3 (human); compound 0.02 µM
  inhibition: -2.5%
PRKD1 (human); compound 0.001 µM
  inhibition: -2.7%
PRKD1 (human); compound 0.02 µM
  inhibition: -2.2%
FER (human); compound 0.001 µM
  inhibition: 5.9%
FER (human); compound 0.02 µM
  inhibition: 3.9%
MARK3 (human); compound 0.001 µM
  inhibition: -1%
ALK (human); compound 0.001 µM
  inhibition: 2.5%
ALK (human); compound 0.02 µM
  inhibition: 1.4%
EPHA6 (human); compound 0.02 µM
  inhibition: 0.3%
PGK1 (human); compound 0.001 µM
  inhibition: -3.7%
PGK1 (human); compound 0.02 µM
  inhibition: -5.3%

## Cc1ccc(Nc2nccc(N(C)c3ccc4c(C)n(C)nc4c3)n2)cc1S(N)(=O)=O
RAF1 (human); compound 0.02 µM
  inhibition: 22.1%
RAF1 (human); compound 0.2 µM
  inhibition: 77.8%
BMPR1A (human); compound 0.02 µM
  inhibition: 0.4%
BMPR1A (human); compound 0.2 µM
  inhibition: 6.5%
PLK4 (human); compound 0.02 µM
  inhibition: 8.8%
PLK4 (human); compound 0.2 µM
  inhibition: 22.3%
MAP3K2 (human); compound 0.02 µM
  inhibition: -4%
MAP3K2 (human); compound 0.2 µM
  inhibition: 12%
MAP3K5 (human); compound 0.02 µM
  inhibition: 1.9%
MAP3K5 (human); compound 0.2 µM
  inhibition: 8.3%
MAP2K7 (human); compound 0.02 µM
  inhibition: 3.2%
MAP2K7 (human); compound 0.2 µM
  inhibition: 0.2%
MAP3K10 (human); compound 0.02 µM
  inhibition: 8.1%
MAP3K10 (human); compound 0.2 µM
  inhibition: 17.3%
MAP2K2 (human); compound 0.02 µM
  inhibition: -7.4%
MAP2K2 (human); compound 0.2 µM
  inhibition: -4%
MAP3K1 (human); compound 0.02 µM
  inhibition: -1%
MAP3K1 (human); compound 0.2 µM
  inhibition: 3.7%
MAP3K8 (human); compound 0.02 µM
  inhibition: -2.6%
MAP3K8 (human); compound 0.2 µM
  inhibition: -1.1%
WEE1 (human); compound 0.02 µM
  inhibition: -3.7%
WEE1 (human); compound 0.2 µM
  inhibition: -3.5%
MAP3K9 (human); compound 0.02 µM
  inhibition: 28.1%
MAP3K9 (human); compound 0.2 µM
  inhibition: 74.8%
MAP2K1 (human); compound 0.02 µM
  inhibition: -3.2%
MAP2K1 (human); compound 0.2 µM
  inhibition: -5.7%
MAP3K12 (human); compound 0.02 µM
  inhibition: 8.5%
MAP3K12 (human); compound 0.2 µM
  inhibition: 25%
MOS (human); compound 0.02 µM
  inhibition: -6.8%
MOS (human); compound 0.2 µM
  inhibition: 5%
MAP3K3 (human); compound 0.02 µM
  inhibition: 4.7%
MAP3K3 (human); compound 0.2 µM
  inhibition: 39.5%
STK11 (human); compound 0.02 µM
  inhibition: 0.6%
MAP2K6 (human); compound 0.02 µM
  inhibition: 7.1%
MAP2K6 (human); compound 0.2 µM
  inhibition: 24.5%
MAP2K5 (human); compound 0.02 µM
  inhibition: -16.9%
MAP2K5 (human); compound 0.2 µM
  inhibition: 0%
TTK (human); compound 0.02 µM
  inhibition: -8.3%
TTK (human); compound 0.2 µM
  inhibition: 2.4%
MAP2K3 (human); compound 0.02 µM
  inhibition: -3.4%
MAP2K3 (human); compound 0.2 µM
  inhibition: 5.5%
MAP3K4 (human); compound 0.02 µM
  inhibition: -1.5%
MAP3K4 (human); compound 0.2 µM
  inhibition: 3%
TNK2 (human); compound 0.02 µM
  inhibition: -5.7%
TNK2 (human); compound 0.2 µM
  inhibition: -3.6%
CSNK1G3 (human); compound 0.02 µM
  inhibition: 0.7%
CSNK1G3 (human); compound 0.2 µM
  inhibition: -0.3%
PRKD1 (human); compound 0.02 µM
  inhibition: -1.1%
PRKD1 (human); compound 0.2 µM
  inhibition: -0.8%
RPS6KA3 KD1 KD2 (human); compound 0.02 µM
  inhibition: 0.7%
RPS6KA3 KD1 KD2 (human); compound 0.2 µM
  inhibition: 3.1%
FER (human); compound 0.02 µM
  inhibition: 15.1%
FER (human); compound 0.2 µM
  inhibition: 40.1%
MARK3 (human); compound 0.02 µM
  inhibition: 1.7%
MARK3 (human); compound 0.2 µM
  inhibition: -3.6%
CDK5 (human); compound 0.02 µM
  inhibition: -0.3%
CDK5 (human); compound 0.2 µM
  inhibition: 0.9%
ALK (human); compound 0.02 µM
  inhibition: 10.1%
ALK (human); compound 0.2 µM
  inhibition: 7.9%
EPHA6 (human); compound 0.02 µM
  inhibition: 3.8%
EPHA6 (human); compound 0.2 µM
  inhibition: 22.3%
PGK1 (human); compound 0.02 µM
  inhibition: -5.4%
PGK1 (human); compound 0.2 µM
  inhibition: -2.2%
